Measurements published in ChEMBL document CHEMBL1781912, “In search of patterns over physicochemical properties and pharmacological activities for a set of [MCl₂(thiosemicarbazone)] complexes (M=Pt/Pd): support for multiple mechanisms of antichagasic action excluding DNA-bonding in vivo?” (Eur J Med Chem, 2011).

What follows are compounds tested on Trypanosoma cruzi (assay: Antichagasic activity against Trypanosoma cruzi Tulahuen 2).
Type: functional, organism-based

SMILES	IC50
O=[N+]([O-])c1ccc(/C=C/C=N/NC(=S)Nc2ccccc2)o1	3.6 µM
NC(=S)N/N=C/c1ccc([N+](=O)[O-])o1	2.7 µM
CNC(=S)N/N=C/c1ccc([N+](=O)[O-])o1	5 µM
O=[N+]([O-])c1ccc(/C=N/NC(=S)Nc2ccccc2)o1	> 25 µM
CC1CS(=O)(=O)CCN1/N=C/c1ccc([N+](=O)[O-])o1 (centres undefined) [NIFURTIMOX]	6.1 µM

Results, then the compound that gave them:

IC50	SMILES
3.5 µM	NC(=S)N/N=C\C=C\c1ccc([N+](=O)[O-])o1
4.5 µM	CNC(=S)N/N=C/C=C/c1ccc([N+](=O)[O-])o1
4.9 µM	CCNC(=S)N/N=C/c1ccc([N+](=O)[O-])o1
4.1 µM	CCNC(=S)N/N=C/C=C/c1ccc([N+](=O)[O-])o1
